Article PMC8341910, “Structural and biophysical insights into the mode of covalent binding of rationally designed potent BMX inhibitors” (RSC Chemical Biology, 2020)
“And” between values parts separate entries of the source, which are not always exact repeats. Identical values can stand only once.

What was measured:
SK-N-MC = assay: Multi cell line growth assay (CellTiter-Glo, 72 h); format: cell-based, human; details: Homo sapiens, SK-N-MC, Brain, ND = no growth inhibition observed
CAOV3 = assay: Multi cell line growth assay (CellTiter-Glo, 72 h); format: cell-based, human; details: Homo sapiens, Caov-3, Ovary, ND = no growth inhibition observed
RS4(11) = assay: Multi cell line growth assay (CellTiter-Glo, 72 h); format: cell-based, human; details: Homo sapiens, RS4-11, Lung (so in the source), ND = no growth inhibition observed
Jurkat = assay: Multi cell line growth assay (CellTiter-Glo, 72 h); format: cell-based, human; details: Homo sapiens, Jurkat, Blood, ND = no growth inhibition observed
His6-hsBMX = target: T1, His6-hsBMX (Homo sapiens, UniProt P51813); assay: Surface plasmon resonance (SPR); format: binding; details: 1:1 Langmuir fit, 25 °C
T1 construct: Crystallization, data collection, and structure determination of BMX catalytic domain in; made in house; host or cells: Sf-9 insect cells
T1 sequence (P51813 417-675 limits assumed): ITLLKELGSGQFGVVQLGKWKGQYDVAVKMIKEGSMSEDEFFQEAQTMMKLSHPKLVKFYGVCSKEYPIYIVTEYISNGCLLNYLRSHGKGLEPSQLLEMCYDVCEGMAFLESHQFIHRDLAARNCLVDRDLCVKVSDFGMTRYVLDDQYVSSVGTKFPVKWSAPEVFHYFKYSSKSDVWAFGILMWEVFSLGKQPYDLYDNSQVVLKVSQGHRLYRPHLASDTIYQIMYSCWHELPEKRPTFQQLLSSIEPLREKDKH
Source text: response upon compound injection (t=0s), or upon washing (t=220s), on immobilized His6-
hsBMX surfaces. Compound concentrations injected on already saturated surfaces were not
included in the 1:1 Langmuir fitting model. X-axis: time (s); y-axis: response (arbitrary units).
Inset plots [x-axis: compound concentration (M); y-axis: response (arbitrary units)] show the
steady-state affinity (KDss) fit for the interactions wherein equilibrium was reached.
Surface Plasmon Resonance:
The kinetic and affinity parameters of protein-compound interaction were evaluated by SPR.
Experiments were carried out in a Biacore 4000 instrument (Biacore AB, GE Healthcare Life
Sciences, Uppsala, Sweden) at 25 °C. His6-BMX protein was diluted to 10 µg/mL in sodium
acetate pH 5.5, in the presence of 5 µM staurosporine and immobilized onto CM5 (Series S)
sensor chips, using the standard amine coupling procedure. Prior to immobilization, the
carboxymethylated surface of the chip was activated with 400 mM 1-ethyl-3-(3-
dimethylaminopropyl)-carbodiimide and 100 mM N-hydroxysuccinimide for 10 min. HBS-N
(10 mM HEPES pH7.4, 150mM NaCl) was used as the background buffer. Protein was coupled
to the surface after 2 to 10 min injection times, at a flow rate of 10 µL/min, in order to reach
1500 to 3500 response units (RU). The remaining activated carboxymethylated groups were
blocked with a 7 min injection of 1 M ethanolamine pH 8.5. Compounds were pre-diluted in
DMSO to 50x the desired highest tested concentration and diluted afterwards in running buffer
(20 mM HEPES pH 7.4, 150 mM NaCl, 1 mM DTT, 0.1 mM EGTA, 0.05 % (v/v) TWEEN-
20, 5 mM MgCl2) in order to reach 2% of DMSO concentration. A DMSO solvent correction
(1% - 3%) was performed to account for variations in bulk signal and to achieve high-quality
data. Each compound was injected over immobilized His6-BMX for 220 s (30 µL min-1;
association phase) followed by 600 to 2000 s of buffer flow (dissociation phase) at a maximum
five times in 2-fold dilution series. All sensorgrams were processed by first subtracting the
binding response recorded from the control surface (reference spot), followed by subtracting
the buffer blank injection from the reaction spot. All datasets were fit to a simple 1:1 Langmuir
interaction model with the provided Biacore 4000 Evaluation software, to determine kinetic rate constants (kon, koff) or steady-state affinity (KDss).

PC3 = assay: Multi cell line growth assay (CellTiter-Glo, 72 h); format: cell-based, human; details: Homo sapiens, PC-3, Prostate, ND = no growth inhibition observed
U-87MG = assay: Multi cell line growth assay (CellTiter-Glo, 72 h); format: cell-based; details: Homo sapiens, Brain, ND = no growth inhibition observed
PTK2 = PTK2 (Homo sapiens, UniProt Q05397); assay: KINOMEscan binding; details: read-out: % Ctrl PTK2
Procedure: (§1) Therefore, we included the whole TEC, EGFR and JAK family in our screening, and the Src family and Lkb1, which also have a cysteine within the same sequence alignment. We also included kinases involved in upstream (Src, FAK, PI3K, mTOR, PDK1) and downstream (Akt, PAK1, TAM) regulation of BMX signaling pathway and non-receptor tyrosine protein kinase Abl.
(§2) Kinome selectivity was performed with DiscoverX KINOMEscan™ technology.

PIK3CG = PIK3CG (Homo sapiens, UniProt P48736); assay: KINOMEscan binding; details: read-out: % Ctrl PIK3CG
Chain of PIK3CG (P48736 whole entry, the tested form may be a part): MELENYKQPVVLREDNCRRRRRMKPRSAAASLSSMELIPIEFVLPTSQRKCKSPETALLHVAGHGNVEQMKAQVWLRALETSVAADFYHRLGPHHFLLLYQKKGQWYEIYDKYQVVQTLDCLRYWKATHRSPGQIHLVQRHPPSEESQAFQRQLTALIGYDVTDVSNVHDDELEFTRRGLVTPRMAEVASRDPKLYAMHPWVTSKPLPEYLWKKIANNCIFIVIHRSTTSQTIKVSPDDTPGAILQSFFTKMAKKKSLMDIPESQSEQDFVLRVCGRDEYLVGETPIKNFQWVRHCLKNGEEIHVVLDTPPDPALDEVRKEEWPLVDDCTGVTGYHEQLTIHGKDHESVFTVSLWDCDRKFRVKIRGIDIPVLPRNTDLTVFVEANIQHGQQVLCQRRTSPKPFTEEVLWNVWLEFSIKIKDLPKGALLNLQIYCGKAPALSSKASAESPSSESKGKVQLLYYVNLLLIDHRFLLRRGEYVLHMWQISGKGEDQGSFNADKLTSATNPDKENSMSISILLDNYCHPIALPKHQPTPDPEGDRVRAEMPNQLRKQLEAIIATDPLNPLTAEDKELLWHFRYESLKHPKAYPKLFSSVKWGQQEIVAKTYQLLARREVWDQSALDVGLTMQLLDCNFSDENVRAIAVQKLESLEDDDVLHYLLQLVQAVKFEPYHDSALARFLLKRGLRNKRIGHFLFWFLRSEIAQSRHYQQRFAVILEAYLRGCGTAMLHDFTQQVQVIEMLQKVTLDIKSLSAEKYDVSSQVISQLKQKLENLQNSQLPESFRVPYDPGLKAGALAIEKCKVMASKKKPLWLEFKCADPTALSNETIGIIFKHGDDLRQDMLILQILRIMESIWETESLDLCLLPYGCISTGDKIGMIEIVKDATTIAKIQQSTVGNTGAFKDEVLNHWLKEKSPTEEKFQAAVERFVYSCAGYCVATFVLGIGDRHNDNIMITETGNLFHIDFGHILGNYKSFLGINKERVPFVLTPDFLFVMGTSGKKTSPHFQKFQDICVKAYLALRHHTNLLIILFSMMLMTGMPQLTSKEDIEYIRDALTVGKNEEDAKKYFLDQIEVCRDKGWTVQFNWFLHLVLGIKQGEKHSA
Procedure: as §1, §2

[1] = target: NanoLuc®-BMX fusion vector in HEK293 cells (Homo sapiens, UniProt P51813); assay: NanoBRET TE intracellular kinase assay; format: cell-based; details: HEK293 transiently transfected with BMX; 1 h; duplicate, mean ± S.D.; read-out: intracellular target engagement IC50
Chain of NanoLuc®-BMX fusion vector in HEK293 cells (P51813 whole entry, the tested form may be a part): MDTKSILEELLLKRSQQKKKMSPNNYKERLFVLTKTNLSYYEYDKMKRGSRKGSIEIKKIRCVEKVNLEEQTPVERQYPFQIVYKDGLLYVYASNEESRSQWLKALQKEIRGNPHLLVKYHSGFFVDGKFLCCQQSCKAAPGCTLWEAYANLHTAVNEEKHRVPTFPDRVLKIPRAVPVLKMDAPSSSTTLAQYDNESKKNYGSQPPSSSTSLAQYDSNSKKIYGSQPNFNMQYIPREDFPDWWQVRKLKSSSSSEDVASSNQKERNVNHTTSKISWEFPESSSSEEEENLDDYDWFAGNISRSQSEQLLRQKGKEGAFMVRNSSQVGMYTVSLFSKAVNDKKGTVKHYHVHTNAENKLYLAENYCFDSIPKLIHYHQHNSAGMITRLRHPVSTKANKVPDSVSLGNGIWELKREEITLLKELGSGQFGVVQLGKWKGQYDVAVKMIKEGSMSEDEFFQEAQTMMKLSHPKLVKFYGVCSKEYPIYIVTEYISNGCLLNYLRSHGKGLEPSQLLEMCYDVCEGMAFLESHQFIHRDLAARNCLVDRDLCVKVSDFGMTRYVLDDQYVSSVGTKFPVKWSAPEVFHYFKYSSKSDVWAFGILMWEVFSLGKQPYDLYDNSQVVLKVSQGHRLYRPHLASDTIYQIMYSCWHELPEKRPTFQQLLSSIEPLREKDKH
Procedure: Target Engagement Intracellular Kinase Assay:
In-cell target engagement was performed at the Reaction Biology Corporation (USA) using the NanoBRETTM technology. Very briefly, HEK296 cells, purchased from ATCC, were
with the reference compound Dasatinib, for 1 hour of incubation. Compounds were diluted 10 times with 3-fold dilution, starting at 1 µM. Curve fits were performed only when % NanoBret
determined using the GraphPad Prism 8 (USA).

[2] = target: JAK3(JH1domain-catalytic) (Homo sapiens, UniProt P52333); assay: KINOMEscan binding; details: read-out: % Ctrl JAK3(JH1domain-catalytic)
Procedure: as §1, §2

MTOR = MTOR (Homo sapiens, UniProt P42345); assay: KINOMEscan binding; details: read-out: % Ctrl MTOR
Procedure: as §1, §2

TEC = TEC (Homo sapiens, UniProt P42680); assay: KINOMEscan binding; details: read-out: % Ctrl TEC
Chain of TEC (P42680 whole entry): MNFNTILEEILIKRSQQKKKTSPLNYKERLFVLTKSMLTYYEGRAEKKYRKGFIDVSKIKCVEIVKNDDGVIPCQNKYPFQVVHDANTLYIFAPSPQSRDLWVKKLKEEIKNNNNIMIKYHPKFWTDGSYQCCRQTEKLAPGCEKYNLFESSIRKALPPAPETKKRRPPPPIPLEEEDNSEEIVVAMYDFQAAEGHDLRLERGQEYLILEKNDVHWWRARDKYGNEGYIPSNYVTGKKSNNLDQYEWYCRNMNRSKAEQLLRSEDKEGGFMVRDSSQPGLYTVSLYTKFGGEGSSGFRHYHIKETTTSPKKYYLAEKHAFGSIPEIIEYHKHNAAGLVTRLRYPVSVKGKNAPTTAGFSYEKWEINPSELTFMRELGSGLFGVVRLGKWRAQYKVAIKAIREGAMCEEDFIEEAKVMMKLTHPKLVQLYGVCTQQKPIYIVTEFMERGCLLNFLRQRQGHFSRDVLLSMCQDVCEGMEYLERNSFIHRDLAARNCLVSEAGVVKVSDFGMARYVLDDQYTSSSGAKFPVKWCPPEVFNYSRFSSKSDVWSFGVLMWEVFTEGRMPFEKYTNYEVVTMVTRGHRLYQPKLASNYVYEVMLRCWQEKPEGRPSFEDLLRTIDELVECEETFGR
Procedure: (§3) Therefore, we included the whole TEC, EGFR and JAK family in our screening, and the Src family and Lkb1, which also have a cysteine within the same sequence alignment.
as §2

MERTK = MERTK (Homo sapiens, UniProt Q12866); assay: KINOMEscan binding; details: read-out: % Ctrl MERTK
Procedure: as §1, §2

ERBB2 = ERBB2 (Homo sapiens, UniProt P04626); assay: KINOMEscan binding; details: read-out: % Ctrl ERBB2
Procedure: as §3, §2

AKT3 = AKT3 (Homo sapiens, UniProt Q9Y243); assay: KINOMEscan binding; details: read-out: % Ctrl AKT3
Procedure: as §1, §2

ITK = ITK (Homo sapiens, UniProt Q08881); assay: KINOMEscan binding; details: read-out: % Ctrl ITK
Chain of ITK (Q08881 whole entry): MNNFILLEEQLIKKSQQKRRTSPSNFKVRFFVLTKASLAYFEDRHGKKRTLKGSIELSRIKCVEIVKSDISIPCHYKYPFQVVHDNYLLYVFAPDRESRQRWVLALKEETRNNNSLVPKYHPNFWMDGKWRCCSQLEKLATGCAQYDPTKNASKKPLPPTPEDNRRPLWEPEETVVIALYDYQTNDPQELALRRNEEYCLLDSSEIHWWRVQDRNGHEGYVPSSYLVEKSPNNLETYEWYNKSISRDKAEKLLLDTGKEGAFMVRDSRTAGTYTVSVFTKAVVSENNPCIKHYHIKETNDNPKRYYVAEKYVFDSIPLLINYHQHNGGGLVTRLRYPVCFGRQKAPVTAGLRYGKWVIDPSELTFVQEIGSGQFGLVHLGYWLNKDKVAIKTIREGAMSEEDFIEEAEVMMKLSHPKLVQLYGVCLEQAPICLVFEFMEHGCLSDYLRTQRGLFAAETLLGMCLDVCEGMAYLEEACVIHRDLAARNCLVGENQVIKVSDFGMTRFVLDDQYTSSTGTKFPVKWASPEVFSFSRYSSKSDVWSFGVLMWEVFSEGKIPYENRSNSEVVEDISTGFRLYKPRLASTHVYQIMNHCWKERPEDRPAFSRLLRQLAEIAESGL
Procedure: as §3, §2

BLK = BLK (Homo sapiens, UniProt P51451); assay: KINOMEscan binding; details: read-out: % Ctrl BLK
Procedure: as §3, §2

LYN = LYN (Homo sapiens, UniProt P07948); assay: KINOMEscan binding; details: read-out: % Ctrl LYN
Procedure: as §1, §2

PIK3CA = PIK3CA (Homo sapiens, UniProt P42336); assay: KINOMEscan binding; details: read-out: % Ctrl PIK3CA
Procedure: as §1, §2

PDPK1 = PDPK1 (Homo sapiens, UniProt O15530); assay: KINOMEscan binding; details: read-out: % Ctrl PDPK1
Procedure: as §1, §2

LCK = LCK (Homo sapiens, UniProt P06239); assay: KINOMEscan binding; details: read-out: % Ctrl LCK
Chain of LCK (P06239 whole entry): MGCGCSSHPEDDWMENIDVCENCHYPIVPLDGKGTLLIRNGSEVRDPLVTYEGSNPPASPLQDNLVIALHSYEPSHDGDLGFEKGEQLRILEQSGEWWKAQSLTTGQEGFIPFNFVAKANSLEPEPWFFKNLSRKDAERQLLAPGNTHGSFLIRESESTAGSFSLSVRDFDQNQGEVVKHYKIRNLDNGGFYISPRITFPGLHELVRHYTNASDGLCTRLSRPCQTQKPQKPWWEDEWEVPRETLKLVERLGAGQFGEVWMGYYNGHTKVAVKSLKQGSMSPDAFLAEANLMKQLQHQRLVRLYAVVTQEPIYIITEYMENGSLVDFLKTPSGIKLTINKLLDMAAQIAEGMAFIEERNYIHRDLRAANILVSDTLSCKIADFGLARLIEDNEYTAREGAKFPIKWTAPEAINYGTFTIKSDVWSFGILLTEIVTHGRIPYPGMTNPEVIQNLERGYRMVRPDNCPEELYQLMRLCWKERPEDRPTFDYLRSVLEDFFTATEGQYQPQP
Procedure: as §3, §2

YES1 = YES1 (Homo sapiens, UniProt P07947); assay: KINOMEscan binding; details: read-out: % Ctrl YES1
Procedure: as §3, §2

FYN = FYN (Homo sapiens, UniProt P06241); assay: KINOMEscan binding; details: read-out: % Ctrl FYN
Procedure: as §1, §2

FGR = FGR (Homo sapiens, UniProt P09769); assay: KINOMEscan binding; details: read-out: % Ctrl FGR
Chain of FGR (P09769 whole entry): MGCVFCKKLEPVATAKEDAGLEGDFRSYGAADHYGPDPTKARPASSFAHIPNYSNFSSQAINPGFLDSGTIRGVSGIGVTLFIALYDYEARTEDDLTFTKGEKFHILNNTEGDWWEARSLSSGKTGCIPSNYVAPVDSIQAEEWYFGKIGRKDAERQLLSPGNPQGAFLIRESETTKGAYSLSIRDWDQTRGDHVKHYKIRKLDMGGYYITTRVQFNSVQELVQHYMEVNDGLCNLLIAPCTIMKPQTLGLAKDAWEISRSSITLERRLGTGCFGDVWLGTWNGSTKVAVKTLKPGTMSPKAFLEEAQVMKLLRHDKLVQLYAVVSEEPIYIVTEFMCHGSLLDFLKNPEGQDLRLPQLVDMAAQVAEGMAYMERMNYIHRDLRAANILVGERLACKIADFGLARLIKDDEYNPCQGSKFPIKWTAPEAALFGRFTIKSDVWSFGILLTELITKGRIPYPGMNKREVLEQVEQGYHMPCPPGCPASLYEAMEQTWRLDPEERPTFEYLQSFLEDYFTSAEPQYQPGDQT
Procedure: as §3, §2

AKT2 = AKT2 (Homo sapiens, UniProt P31751); assay: KINOMEscan binding; details: read-out: % Ctrl AKT2
Chain of AKT2 (P31751 whole entry): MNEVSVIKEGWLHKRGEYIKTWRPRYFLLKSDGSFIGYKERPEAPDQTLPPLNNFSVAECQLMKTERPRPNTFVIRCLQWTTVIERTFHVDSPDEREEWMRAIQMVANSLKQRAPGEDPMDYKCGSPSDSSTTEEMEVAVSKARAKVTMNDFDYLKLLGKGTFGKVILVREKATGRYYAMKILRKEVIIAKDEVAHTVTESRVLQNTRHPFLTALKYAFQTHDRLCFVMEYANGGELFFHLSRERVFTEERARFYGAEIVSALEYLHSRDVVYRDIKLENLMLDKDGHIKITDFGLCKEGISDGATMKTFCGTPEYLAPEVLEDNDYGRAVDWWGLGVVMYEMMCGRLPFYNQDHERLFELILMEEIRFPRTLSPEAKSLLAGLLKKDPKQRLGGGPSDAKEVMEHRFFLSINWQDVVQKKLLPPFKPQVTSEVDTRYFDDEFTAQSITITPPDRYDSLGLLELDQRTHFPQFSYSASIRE
Procedure: as §1, §2

With `C=CC(=O)Nc1cc(-n2c(=O)ccc3cnc4cc(-c5ccc(NS(C)(=O)=O)cc5)ccc4c32)ccc1C` [JS24] the GI50 (SK-N-MC) was 8.53 ± 0.44 µM, the GI50 (CAOV3) was 8.56 µM and the GI50 (RS4(11)) was 2.09 µM. The GI50 (Jurkat) was 5.48 µM, the koff (His6-hsBMX) was < 0.0001 s⁻¹ and the kon (His6-hsBMX) was 140000 M⁻¹ s⁻¹. It also gave a GI50 (PC3) of 4.8 µM and a GI50 (U-87MG) of 5.04 ± 0.01 µM.

For `C=CC(=O)Nc1cc(C)cc(-n2c(=O)ccc3cnc4cc(-c5ccc(NS(C)(=O)=O)cc5)ccc4c32)c1` [JS25], the remaining binding at 1 µM (PTK2) was 93%, the remaining binding at 1 µM (PIK3CG) was 64% and the IC50 [1] was 0.0448 µM and 0.045 µM. The remaining binding at 1 µM [2] was 21%, the remaining binding at 1 µM (MTOR) was 100% and the remaining binding at 1 µM (TEC) was 0.4%. For the same compound, the remaining binding at 1 µM (MERTK) was 89%, the remaining binding at 1 µM (ERBB2) was 89% and the remaining binding at 1 µM (AKT3) was 99%. It also gave a remaining binding at 1 µM (ITK) of 4.7%, a remaining binding at 1 µM (BLK) of 16% and a remaining binding at 1 µM (LYN) of 100%. It also gave a remaining binding at 1 µM (PIK3CA) of 79%, a remaining binding at 1 µM (PDPK1) of 92% and a remaining binding at 1 µM (LCK) of 80%. The remaining binding at 1 µM (YES1) was 85%, the remaining binding at 1 µM (FYN) was 99% and the remaining binding at 1 µM (FGR) was 93%. It also gave a remaining binding at 1 µM (AKT2) of 94%.
